Assay results: the NIST ThermoML archive (doi:10.1021/je049661s)

Columns and labels:
[1] = 101.3 kPa, Liquid
[2] = xn = mol fraction of the nth substance listed; conditions: 101.3 kPa, Liquid

O=C1CCCCC1 [cyclohexanone]
[1]
Conditions	mass density [kg/m3]	viscosity [mPa·s]
298.15 K	941	2.021
303.15 K	937.4	1.806
308.15 K	936.5	1.585

O=[N+]([O-])c1ccccc1 [nitrobenzene] + C1CCCCC1
[2]
Conditions	mass density, 298.15 K [kg/m3]	mass density, 303.15 K [kg/m3]	mass density, 308.15 K [kg/m3]	viscosity, 298.15 K [mPa·s]	viscosity, 303.15 K [mPa·s]	viscosity, 308.15 K [mPa·s]
x2 = 0	1198.5	1193.6	1191.1	1.686	1.619	1.554
x2 = 0.0951	1160.4	1158	1156	1.589	1.527	1.489
x2 = 0.1908	1121.8	1119.7	1117.6	1.482	1.423	1.385
x2 = 0.2875	1080.5	1078	1075.5	1.369	1.313	1.276
x2 = 0.3866	1037.9	1035	1031.9	1.26	1.21	1.168
x2 = 0.4828	996	993	990	1.167	1.117	1.074
x2 = 0.5865	950.4	947.6	945	1.083	1.032	0.9873
x2 = 0.685	907.2	905	902.3	1.022	0.968	0.9182
x2 = 0.7901	861.6	860	856.6	0.9712	0.9142	0.8626
x2 = 0.896	816.9	814.4	809.1	0.9338	0.874	0.8182

O=[N+]([O-])c1ccccc1 [nitrobenzene]
[1]
Conditions	mass density [kg/m3]	speed of sound [m/s]	viscosity [mPa·s]
298.15 K	1198.5	1648.4	1.686
303.15 K	1193.6	–	1.619
308.15 K	1191.1	–	1.554

C1CCCCC1 [cyclohexane] + O=C1CCCCC1
[2], x1 = 1
Conditions	mass density [kg/m3]	viscosity [mPa·s]
298.15 K	773.9	0.8945
303.15 K	768.6	0.8284
308.15 K	761.2	0.7637

O=C1CCCCC1 [cyclohexanone] + C1CCCCC1
[2]
Conditions	mass density, 298.15 K [kg/m3]	mass density, 303.15 K [kg/m3]	mass density, 308.15 K [kg/m3]	viscosity, 298.15 K [mPa·s]	viscosity, 303.15 K [mPa·s]	viscosity, 308.15 K [mPa·s]
x2 = 0	941	937.4	936.5	2.021	1.806	1.585
x2 = 0.0964	921.6	917.9	916.6	1.852	1.661	1.485
x2 = 0.2003	901.3	897.6	895.7	1.682	1.522	1.384
x2 = 0.2916	883.8	880.2	878.3	1.541	1.406	1.296
x2 = 0.3895	866	862.8	860.3	1.403	1.294	1.203
x2 = 0.4894	–	845.5	842.6	–	1.184	1.112
x2 = 0.4895	848.9	–	–	1.275	–	–
x2 = 0.5886	–	828.7	825.6	–	1.084	1.025
x2 = 0.5887	832.5	–	–	1.163	–	–
x2 = 0.6957	815.4	811.6	807.5	1.063	0.9925	0.9408
x2 = 0.7951	800.3	796.3	791.3	0.9917	0.9237	0.8704
x2 = 0.8968	–	781.8	775.5	–	0.8707	0.8101
x2 = 0.8969	786.5	–	–	0.9386	–	–

C1CCCCC1 [cyclohexane] + O=[N+]([O-])c1ccccc1
[2], x1 = 1
Conditions	mass density [kg/m3]	viscosity [mPa·s]
298.15 K	773.9	0.8945
303.15 K	768.6	0.8284
308.15 K	761.2	0.7637

C1CCCCC1 [cyclohexane]
[1]
Conditions	mass density [kg/m3]	viscosity [mPa·s]
298.15 K	773.9	0.8945
303.15 K	768.6	0.8284
308.15 K	761.2	0.7637

O=C1CCCCC1 [cyclohexanone] + O=[N+]([O-])c1ccccc1
[2], x1 = 1
Conditions	mass density [kg/m3]	speed of sound [m/s]	viscosity [mPa·s]
298.15 K	941	1847.7	2.021
303.15 K	937.4	–	1.806
308.15 K	936.5	–	1.585

O=[N+]([O-])c1ccccc1 [nitrobenzene] + O=C1CCCCC1
[2]
Conditions	mass density, 298.15 K [kg/m3]	mass density, 303.15 K [kg/m3]	mass density, 308.15 K [kg/m3]	speed of sound, 298.15 K [m/s]	speed of sound, 303.15 K [m/s]	speed of sound, 308.15 K [m/s]	viscosity, 298.15 K [mPa·s]	viscosity, 303.15 K [mPa·s]	viscosity, 308.15 K [mPa·s]
x2 = 0	1198.5	1193.6	1191.1	1648.4	–	1961	1.686	1.619	1.554
x2 = 0.098	1169.6	1167.6	1166.8	1696	1842.8	1991	1.752	1.645	1.556
x2 = 0.1946	1141.8	1140.8	1140.3	1733	1873	2019.9	1.785	1.666	1.557
x2 = 0.2933	1114.5	1113.4	1112.9	1764.1	1901.5	2041.5	1.802	1.678	1.559
x2 = 0.3938	1087.5	1085.6	1084.9	1790	1927.7	2058.6	1.812	1.685	1.561
x2 = 0.495	1061.3	1058.9	1057.9	1811.2	1945	2069.7	1.827	1.695	1.562
x2 = 0.592	1036.9	1034.5	1033.4	1825.7	1957	2076.4	1.848	1.704	1.565
x2 = 0.6945	1011.6	1009.6	1008.6	1839.8	1962	2080.5	1.879	1.721	1.567
x2 = 0.7966	987.5	985.7	985	1848.3	1963	2080	1.921	1.749	1.571
x2 = 0.8973	963.4	961.9	961.4	1853.5	1964.1	2081.5	1.97	1.778	1.577
